This is an account of results in patent US7109173B1, “Transport of nucleotides, oligonucleotides and polynucleotides into the cytoplasm and nucleus of cells by peptides” (priority 2004, dated 2006).

What all share (type): cell-based
The test system of one series is Fibroblasts. The experiment in a line: Uptake of homopolymers by fibroblasts, single cell fluorescence analysis with syto-13. The conditions noted are these: fibroblasts stained with syto-13, relative intensity ± standard deviation, n = number of cells. The protocol: (§1) Fibroblasts cells were incubated for 24 hrs with and without fetal calf serum. Cells harvested at zero time served as controls. They were subjected to all of the analyses performed on experimental cells. Cells were harvested as described in ‘section V. Methods and Materials’. Macrophages were treated the same as previously described for fibroblasts except human serum was used in place of fetal calf serum and they were not cultured without serum. Cells were incubated with predetermined amounts of nucleotides with and without peptide Incubations were stopped at zero time and 24 hrs. The media harvested at zero and 24 hrs was saved for analysis for peptides and nucleotides. Cells were washed and harvested as described previously. The wash was saved for analysis of peptides and nucleotides. Some cells were sonicated and aliquots analyzed for radioactivity by a liquid scintillation spectrometer (counter). […] Spectrophotometric analysis quantifies the amount of nucleotide retained. VI: Extraction of lipids—The non-saponifiable lipids and free fatty acids were extracted using petroleum ether (30–60° C.). Neutral lipids were extracted with petroleum ether without prior saponification. […] The latter two methods, when used, necessitate extensive chromatographic separation of mevalonate from the phospholipids and neutral lipids. […] Control experiments in which the reaction was stopped at zero time and in which the enzyme preparation is omitted show no radioactivity is extracted when the usual incubation, saponification, and isolation procedures were performed.
(§2) a) Isolating the peptides then b) incubating the peptide sample with predetermined amounts of nucleotides with and without peptides. After this, the nucleotides are transferred into the cells. Cells were treated with homopolymers in the presence and absence of the peptides. Uptake was determined as described under Methods and Materials, above. The polynucleotides were quantified spectrophotometrically and by single cell fluorescence analysis using syto-13 (Molecular Probes).
Fibroblasts were cultured as described under V.Methods and Materials. Cells were stained with syto-13 (Molecular Probes). Single cell fluorescence analysis was performed using a Zeiss microsope photometer. Values are relative intensity ±standard deviation. N=number of cells.

In another series the test system is human fibroblasts. The experiment in a line: Uptake of polynucleotides in the presence and absence of peptides by human fibroblasts, spectrophotometric. More on the design: Absorbance, Peptides / Absorbance, Without Peptides: dose or concentration left out as unconfirmed. The note with it: 24 hrs minus zero time values; for μ grams, Peptides / Absorbance, Peptides: with peptides; for Absorbance, Peptides / Absorbance, Without Peptides: absorbance at 260 nm, ± standard deviation. Here is the method: 1. Analysis of control cells stopped at zero time gives the original content of nucleotides of interest.
2. Analysis of control cells stopped after 24 hour incubation gives the change in nucleotide content during the 24 hr period. That is, 24 hr content of control cells minus zero time control cells nucleotide content equals net change.
3. Analysis of nucleotide treated cells at zero time incubation gives the initial content and/or bound nucleotides.
4. Analysis of nucleotide treated cells at 24 hour time gives the amount present after 24 hours.
5. 24 hour content minus zero time content gives the net change in nucleotide content.
6. The net content of the 24 hr nucleotide treated cells minus the zero time content of nucleotides gives the amount transported by the peptides.
7. The net values are previously corrected for the amount in the original media and wash for the treated cells.
as §1, §2
The cells were cultured as described under Methods, above. The experiments were stopped at zero time and 24 hours. Values are obtained by subtracting initial zero time values from those of 24 hrs. Values are ±standard deviation. Absorbance measured spectrophotometrically at […].

The next series relates to cells. Kind of series: Determination of cellular loci of administered polynucleotides by differential centrifugation. The conditions noted are these: for μ grams, Microsomal Fraction / μ grams, Nuclear Fraction: calculated after subtracting zero time control values from experimental values; for Absorbance, Microsomal Fraction / Absorbance, Nuclear Fraction: observed values, absorbance at 260 nm. More on the design: Absorbance, Nuclear Fraction / Absorbance, Microsomal Fraction: dose or concentration left out as unconfirmed. Here is the method:
as §1
Cells were cultured and treated as described under Methods, above. Cells were subjected to differential centrifugation. μ grams calculated after correction of values by subtracting zero time control values from experimental values. No significant absorbances of nucleotides were detected in the experimental samples in the mitochondrial-lysosomal fraction when zero time control values were subtracted from the experimental values. Absorbance was measured spectrophotometrically at […]. […] In a preferred embodiment of this invention, the target cells are smooth muscle cells and macrophages which are found in atheromatous plaques. The plaques are a focal thickening of the intima caused by proliferation of smooth muscle cells.

Regarding Polyuridylic acid, in the series on Fibroblasts, the “Fluorescence Relative Intensity, Control” value is given as 4.4 ± 1.3 (n = 22) and the “Fluorescence Relative Intensity, Experimental” value is listed as 16.8 ± 4.6 (n = 23). Besides, in the series with human fibroblasts, the “μ grams, Peptides” value is reported as 436 μ grams; the “Absorbance, Peptides” value is listed as 0.370 ± 0.07; the “μ grams, Without Peptides” value is 82 μ grams; the “Absorbance, Without Peptides” value is 0.071 ± 0.013. In addition, in the series on cells, the “μ grams, Microsomal Fraction” value is reported as 186 μ grams; the “Absorbance, Microsomal Fraction” value stood at 0.313 ± 0.030; the “μ grams, Nuclear Fraction” value was 246.1 μ grams; the “Absorbance, Nuclear Fraction” value is 0.326 ± 0.050.

As to Polycytidylic acid, in the series on Fibroblasts, the “Fluorescence Relative Intensity, Control” value was 3.3 ± 0.6 (n = 14) and the “Fluorescence Relative Intensity, Experimental” value was 14.9 ± 1.6 (n = 14). For the same substance, in the series with human fibroblasts, the “μ grams, Peptides” value was determined as 380 μ grams; the “Absorbance, Peptides” value is recorded as 0.209 ± 0.028; the “μ grams, Without Peptides” value turned out to be 94 μ grams; the “Absorbance, Without Peptides” value is 0.052 ± 0.031. In the series on cells, the “μ grams, Microsomal Fraction” value is 153 μ grams; the “Absorbance, Microsomal Fraction” value was 0.236 ± 0.025; the “μ grams, Nuclear Fraction” value is recorded as 107.4 μ grams; the “Absorbance, Nuclear Fraction” value was determined as 0.254 ± 0.026.

For Polyadenylic acid, in the series with Fibroblasts, the “Fluorescence Relative Intensity, Control” value is reported as 11.7 ± 3.8 (n = 22) and the “Fluorescence Relative Intensity, Experimental” value is 27.4 ± 7.5 (n = 23). In the series with human fibroblasts, the “μ grams, Peptides” value was 252 μ grams; the “Absorbance, Peptides” value was 0.200 ± 0.101; the “μ grams, Without Peptides” value is given as 59 μ grams; the “Absorbance, Without Peptides” value came out at 0.047 ± 0.025. Further, in the series with cells, the “μ grams, Microsomal Fraction” value is 155 μ grams; the “Absorbance, Microsomal Fraction” value was 0.242 ± 0.038; the “μ grams, Nuclear Fraction” value is on record as 59.1 μ grams; the “Absorbance, Nuclear Fraction” value was found to be 0.265 ± 0.061.

For the substance Polyguanylic acid, in the series with Fibroblasts, the “Fluorescence Relative Intensity, Control” value is given as 13.1 ± 3.1 (n = 24) and the “Fluorescence Relative Intensity, Experimental” value is 39.2 ± 9.5 (n = 17). Also, in the series with human fibroblasts, the “μ grams, Peptides” value was determined as 1160 μ grams; the “Absorbance, Peptides” value was 0.444 ± 0.058; the “μ grams, Without Peptides” value was 580 μ grams; the “Absorbance, Without Peptides” value was found to be 0.223 ± 0.084. For the same substance, in the series with cells, the “μ grams, Nuclear Fraction” value is 747.7 μ grams and the “Absorbance, Nuclear Fraction” value was 0.354 ± 0.030.
